Assay results as given in patent US12098148B2, “Therapeutic compounds” (C4X Discovery Limited, priority 2018, dated 2024).

Assays:
[1] = tested on: NQO1 mRNA in BEAS-2B cells; assay: Beas2B NQO1 mRNA cell based assay; set-up: species or system human; details: Homo sapiens, BEAS-2B, 24 h, 24 h compound treatment, increase in NQO1 mRNA vs vehicle (0.1% DMSO), read-out: EC50
Method: Beas2B NQO1 mRNA Cell Based Assay
The up regulation of the NRF2 mediated gene NAD(P)H:quinone acceptor oxidoreductase 1 (NQO1) was measured using the following assay method: BEAS-2B cells (ATCC CRL-9609) were plated in 96-well clear plates at 20,000 cells/well in 75 μL of cell culture media and incubated overnight (37° C., 5% CO2). On day 2, 25 μL of compound or controls were added to the cells for 24 h. On day 3, the medium was aspirated from the plate and the Cells-to-CT™ 1-Step TaqMan® Kit (Ambion A25603) was used to perform expression analysis directly from cultured cells without RNA purification according to the manufacturer's instructions.
Briefly, cells were washed with ice cold PBS and 22.5 μL of room-temperature DNase/Lysis solution was added to the cells and incubated at room temperature for 5 minutes. To stop the reaction, 2.25 μL of stop solution was added to the cell lysate. The samples were diluted 1:5 using nuclease free water and 2.5 μL transferred into the PCR plate. Real-time PCR was performed using the C-1000 Thermal Cycler (Bio-Rad) using human beta actin as the internal control. The cDNA was amplified with a specific primer for NQO1 using the 1-step RT-PCR master mix (Ambion Cells-to-CT™ 1-Step TaqMan® Kit A25603). The primers/probes sets that were used for amplification of cDNA were obtained from TaqMan Gene Expression Assays (Applied Biosystems). The comparative CT (ΔΔCT) relative quantification method was used to calculate the relative mRNA level of the target gene NQO1 as described in the Applied Biosystems Chemistry Guide.

[2] = target: human KEAP1 (N-term, residues 321-609) (Homo sapiens, UniProt Q14145); assay: biochemical;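 also: fluorescence polarization competition assay of Kelch domain binding to NRF2, 12-point 1:3 dilution series from 10 µM, read after 1 h at room temperature, floor 10 nM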
human KEAP1 (N-term, residues 321-609), sequence (Q14145 321-609): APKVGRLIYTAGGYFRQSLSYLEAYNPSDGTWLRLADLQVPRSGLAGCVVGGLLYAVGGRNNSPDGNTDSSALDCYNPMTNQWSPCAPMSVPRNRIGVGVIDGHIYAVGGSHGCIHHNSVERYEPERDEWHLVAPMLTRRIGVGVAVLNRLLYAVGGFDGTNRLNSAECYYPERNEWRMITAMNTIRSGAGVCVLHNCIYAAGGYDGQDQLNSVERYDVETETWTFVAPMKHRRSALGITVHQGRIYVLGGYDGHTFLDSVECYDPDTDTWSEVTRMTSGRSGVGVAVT

SMILES	EC50 [1] [nM]	IC50 [2] [nM]
CCn1ncc(COc2ccc(Br)c3c2[C@@H](CN2Cc4ccccc4C2=O)N(C(=O)[C@@H]2CCCC[C@@H]2C(=O)O)CC3)n1 [Example 27, (1S,2R)-2-((S)-5-bromo-8-((2-ethyl-2H-1,2,3-triazol-4-yl)methoxy)-1-((1-oxoisoindolin-2-yl)methyl)-1,2,3,4-tetrahydroisoquinoline-2-carbonyl)cyclohexane-1-carboxylic acid]	18	8.3
Cc1cnc(COc2ccc(Br)c3c2[C@@H](CN2Cc4ccccc4C2=O)N(C(=O)[C@@H]2CCCC[C@@H]2C(=O)O)CC3)s1 [Example 28, (1S,2R)-2-((S)-5-Bromo-8-((5-methylthiazol-2-yl)methoxy)-1-((1-oxoisoindolin-2-yl)methyl)-1,2,3,4-tetrahydroisoquinoline-2-carbonyl)cyclohexane-1-carboxylic acid]	93	14
Cn1ncnc1COc1ccc(Br)c2c1[C@@H](CN1Cc3ccccc3C1=O)N(C(=O)[C@@H]1CCCC[C@@H]1C(=O)O)CC2 [Example 29, (1S,2R)-2-((S)-5-Bromo-8-((1-methyl-1H-1,2,4-triazol-5-yl)methoxy)-1-((1-oxoisoindolin-2-yl)methyl)-1,2,3,4-tetrahydroisoquinoline-2-carbonyl)cyclohexane-1-carboxylic acid]	100	16
O=C(O)[C@H]1CCCC[C@H]1C(=O)N1CCc2c(Br)ccc(OCc3cccnn3)c2[C@H]1CN1Cc2ccccc2C1=O [Example 30]	17	9.2
O=C(O)[C@H]1CCCC[C@H]1C(=O)N1CCc2c(Br)ccc(OCc3cn(CC4CC4)nn3)c2[C@H]1CN1Cc2ccccc2C1=O [Example 31, (1S,2R)-2-((S)-5-bromo-8-((1-(cyclopropylmethyl)-1 1,2,3-triazol-4-yl)methoxy)-1-((1-oxoisoindolin-2-yl)methyl)-1,2,3,4-tetrahydroisoquinoline-2-carbonyl)cyclohexane-1-carboxylic acid]	8.5	4.5
O=C(O)[C@H]1CCCC[C@H]1C(=O)N1CCc2c(Br)ccc(OCc3ccn4ccnc4c3)c2[C@H]1CN1Cc2ccccc2C1=O [Example 32]	75	6
Cn1cnc2cc(COc3ccc(Br)c4c3[C@@H](CN3Cc5ccccc5C3=O)N(C(=O)[C@@H]3CCCC[C@@H]3C(=O)O)CC4)ccc21 [Example 33, (1S,2R)-2-((S)-5-bromo-8-((1-methyl-1H-benzo[d]imidazol-5-yl)methoxy)-1-((1-oxoisoindolin-2-yl)methyl)-1,2,3,4-tetrahydroisoquinoline-2-carbonyl)cyclohexane-1-carboxylic acid]	22	5.1
Cn1cc(COc2ccc(Br)c3c2[C@@H](CN2Cc4ccccc4C2=O)N(C(=O)[C@@H]2CCCC[C@@H]2C(=O)O)CC3)nn1 [Example 34, (1S,2R)-2-((S)-5-bromo-8-((1-methyl-1H-1,2,3-triazol-4-yl)methoxy)-1-((1-oxoisoindolin-2-yl)methyl)-1,2,3,4-tetrahydroisoquinoline-2-carbonyl)cyclohexane-1-carboxylic acid]	3.3	5
CC(C)n1cc(COc2ccc(Br)c3c2[C@@H](CN2Cc4ccccc4C2=O)N(C(=O)[C@@H]2CCCC[C@@H]2C(=O)O)CC3)nn1 [Example 35, (1S,2R)-2-((S)-5-Bromo-8-((1-isopropyl-1H-1,2,3-triazol-4-yl)methoxy)-1-((1-oxoisoindolin-2-yl)methyl)-1,2,3,4-tetrahydroisoquinoline-2-carbonyl)cyclohexane-1-carboxylic acid]	7.5	9.9
Cc1nnc(COc2ccc(Br)c3c2[C@@H](CN2Cc4ccccc4C2=O)N(C(=O)[C@@H]2CCCC[C@@H]2C(=O)O)CC3)o1 [Example 36, (1S,2R)-2-((S)-5-bromo-8-((5-methyl-1,3,4-oxadiazol-2-yl)methoxy)-1-((1-oxoisoindolin-2-yl)methyl)-1,2,3,4-tetrahydroisoquinoline-2-carbonyl)cyclohexane-1-carboxylic acid]	130	11
COc1cc(COc2ccc(Br)c3c2[C@@H](CN2Cc4ccccc4C2=O)N(C(=O)[C@@H]2CCCC[C@@H]2C(=O)O)CC3)cc2nnn(C)c12 [Example 37, (1S,2R)-2-((S)-5-bromo-8-((7-methoxy-1-methyl-1H-benzo[d][1,2,3]triazol-5-yl)methoxy)-1-((1-oxoisoindolin-2-yl)methyl)-1,2,3,4-tetrahydroisoquinoline-2-carbonyl)cyclohexane-1-carboxylic acid]	44	13
Cn1nnc2cc(COc3ccc(Br)c4c3[C@@H](CN3Cc5ccccc5C3=O)N(C(=O)[C@@H]3CCCC[C@@H]3C(=O)O)CC4)ccc21 [Example 38, (1S,2R)-2-((S)-5-bromo-8-((1-methyl-1H-benzo[d][1,2,3]triazol-5-yl)methoxy)-1-((1-oxoisoindolin-2-yl)methyl)-1,2,3,4-tetrahydroisoquinoline-2-carbonyl)cyclohexane-1-carboxylic acid]	17	9.3
Cn1cnc(COc2ccc(Br)c3c2[C@@H](CN2Cc4ccccc4C2=O)N(C(=O)[C@@H]2CCCC[C@@H]2C(=O)O)CC3)n1 [Example 39, (1S,2R)-2-((S)-5-bromo-8-((1-methyl-1H-1,2,4-triazol-3-yl)methoxy)-1-((1-oxoisoindolin-2-yl)methyl)-1,2,3,4-tetrahydroisoquinoline-2-carbonyl)cyclohexane-1-carboxylic acid]	45	8.3
CC(C)n1ccnc1COc1ccc(Br)c2c1[C@@H](CN1Cc3ccccc3C1=O)N(C(=O)[C@@H]1CCCC[C@@H]1C(=O)O)CC2 [Example 40, (1S,2R)-2-((S)-5-bromo-8-((1-isopropyl-1H-imidazol-2-yl)methoxy)-1-((1-oxoisoindolin-2-yl)methyl)-1,2,3,4-tetrahydroisoquinoline-2-carbonyl)cyclohexane-1-carboxylic acid]	94	9
Cn1nnc(COc2ccc(Br)c3c2[C@@H](CN2Cc4ccccc4C2=O)N(C(=O)[C@@H]2CCCC[C@@H]2C(=O)O)CC3)c1C(F)F [Example 41, (1S,2R)-2-((S)-5-bromo-8-((5-(difluoromethyl)-1-methyl-1H-1,2,3-triazol-4-yl)methoxy)-1-((1-oxoisoindolin-2-yl)methyl)-1,2,3,4-tetrahydroisoquinoline-2-carbonyl)cyclohexane-1-carboxylic acid]	1.5	5.2
CCn1cnnc1COc1ccc(Br)c2c1[C@@H](CN1Cc3ccccc3C1=O)N(C(=O)[C@@H]1CCCC[C@@H]1C(=O)O)CC2 [Example 42, (1S,2R)-2-((S)-5-bromo-8-((4-ethyl-4H-1,2,4-triazol-3-yl)methoxy)-1-((1-oxoisoindolin-2-yl)methyl)-1,2,3,4-tetrahydroisoquinoline-2-carbonyl)cyclohexane-1-carboxylic acid]	18	7.9
CCn1cnc(COc2ccc(Br)c3c2[C@@H](CN2Cc4ccccc4C2=O)N(C(=O)[C@@H]2CCCC[C@@H]2C(=O)O)CC3)c1C#N [Example 43, (1S,2R)-2-((S)-5-bromo-8-((5-cyano-1-ethyl-1H-imidazol-4-yl)methoxy)-1-((1-oxoisoindolin-2-yl)methyl)-1,2,3,4-tetrahydroisoquinoline-2-carbonyl)cyclohexane-1-carboxylic acid]	18	10
